Tested on: monkey
Test: EEG effects of drugs delivered through the implanted subdural/subarachnoid sheet body in a monkey
Format: in vivo
Conditions: acetylcholine-induced EEG seizure, delivery through the sheet body over right frontal cortex (FIG. 8)
Description: In this experiment, drugs with known pharmacological actions were delivered through the sheet body 102 to test whether the inlet and outlet ports 112, 114 were clogged or obstructed, with the effects of the administered drugs monitored via EEG electrode contacts 113 integrated into the sheet body 102. The experiment was performed in a monkey approximately three months after the implantation of the sheet body 102 over the animal's right frontal cortex and the implantation of the control unit 130. During this post-surgical period, the delivery fluid was saline. On the day of this experiment, the mini-pump was temporarily modified to deliver a seizure-inducing agent (acetylcholine) through the sheet body 102, followed by a delivery of an antiepileptic drug (muscimol) through the same route. Traces 1 to 3 of FIG. 6 represent EEG recordings obtained with the EEG electrodes integrated into the subarachnoid sheet (ipsilateral recording channels 1, 2 and 3). The fourth trace of FIG. 6 was obtained from a subdural/subarachnoid electrode placed, during device implantation, in the left-side frontal cortex (contralateral recording channel).

SMILES: NCc1cc(=O)[nH]o1 [muscimol]
- time to stop of EEG seizure after delivery: ≤ 2 min

— patent US9233237B2, “Apparatus and method for periodic fluid-delivery/fluid-removal cycles in the cranial subarachnoid space to treat cerebral cortical disorders” (NEW YORK UNIVERSITY, priority 2010, dated 2016)
